{"source": "BindingDB's records for doi:10.3109/14756366.2010.486794", "about": "(University of Lisbon, 2011)", "target": "T1, Neutrophil elastase (Homo sapiens, UniProt P08246)", "T1 sequence (P08246 whole entry)": "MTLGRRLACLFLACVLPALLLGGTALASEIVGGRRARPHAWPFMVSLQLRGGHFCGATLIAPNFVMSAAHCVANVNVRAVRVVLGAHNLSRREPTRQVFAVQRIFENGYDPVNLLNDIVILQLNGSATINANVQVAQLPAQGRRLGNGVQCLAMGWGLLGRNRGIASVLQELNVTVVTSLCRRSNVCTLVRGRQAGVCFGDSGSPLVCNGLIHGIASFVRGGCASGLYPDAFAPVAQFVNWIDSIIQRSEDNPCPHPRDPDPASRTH", "test": "Enzyme Kinetic Assay", "settings": "25 °C", "description": "The inhibition of the HLE was studied at 25°C by continuously monitoring the absorbance at 410 nm for 20 min of a solution prepared by mixing 10 μL of HLE stock solution (2 μM in 0.05M acetate buffer, pH 5.5) with a solution containing 10 μL of 5 in DMSO, 20 μL of MeOSuc-Ala-Ala-Pro-Val-p-NA (50 mM in DMSO) and 960 μL of 0.1M pH 7.2 HEPES buffer. Control assays, in which the inhibitor was omitted, ran linearly.", "data": [{"smiles": "CCC1(CC)C(=O)N(c2ccc(CS(=O)(=O)c3ccccc3)cc2)C1=O", "note": "[4-oxo-β-lactam (3)]", "values": [{"measurement": "Ki", "result": 0.63, "unit": "nM"}]}]}
